Assay results published in publication PMC9143506, “Investigating the Mechanisms behind the Positive Food Effect of Abiraterone Acetate: In Vitro and Rat In Situ Studies” (Pharmaceutics, 2022).
Converted amounts (≈) assume the structure as drawn. Like-named read-outs stand apart in the source and are kept apart here. Each block holds one molecule with its values, some of them ahead of it.

Legend:
[1] = 24 h, pH 6.5
Description: (§2) The apparent solubility (i.e., including both molecules freely dissolved in the aqueous phase and molecules solubilised in colloidal structures and lipid droplets [12]) of abiraterone and abiraterone acetate was determined in the different simulated fed state media (i.e., FeSSIF*, FeSSIF*-FM, FeSSIF*-FMT, FeSSIF*-FMTh, FeSSIF*-Th and FeSSIF*-E) using the shake flask method. Approximately 0.3 mg of compound was added to microcentrifuge tubes containing 0.3 mL of the abovementioned media and placed in a prewarmed shaking incubator (37 °C, 175 rpm; KS 4000 I control incubator from Ika (Staufen, Germany)) for 24 h. To the media containing lipid digestion products, 0.9 mg of compound was added instead of 0.3 mg. All solubility experiments were performed in triplicate. Afterwards, samples were centrifuged to separate the solid phase from the dissolved part (20.817 g, 30 min at 37 °C). […] To determine the solubility in the micellar layer, the top lipid layer was aspirated upon which the supernatant was diluted in MeOH:H2O (50:50 v/v) containing IS (abiraterone-d4 and abiraterone acetate-d4, final concentration 50 nM). To determine the solubility in the total sample, the entire supernatant was transferred into a new microcentrifuge tube and vortexed upon which the supernatant was diluted in MeOH:H2O (50:50 v/v) containing IS to fit the linear range.

[2] = design: method as in PMID 25592324; details: FaSSIF, pH 6.5; cited from earlier work
[3] = cited from earlier work
[4] = Passive permeation in the artificial membrane insert system (AMI-system)
Description: (§3) To investigate the impact of TG and lipid digestion products (FFA, MG) on the passive permeation of abiraterone, transport experiments were performed in the AMI-system according to Berben et al. [13]. In short, a regenerated cellulose membrane (molecular weight cut-off 2 kDa) was mounted between two plastic rings resulting in a surface area of 4.91 cm^2. Membrane integrity was checked by water leakage. The AMI-system was placed in a six-well plate on a shaking incubator at 37 °C and 300 rpm. A 1:3 ratio was maintained between donor and acceptor volumes by applying 2 mL of TPGS-solution to the acceptor compartment and 665 µL of the donor solution of abiraterone in the media prepared as described above. The initial concentration of abiraterone depended on the medium to ensure donor concentrations below the solubility and sufficient permeation to quantify the permeated amount in the acceptor compartment: 10 μM in FaSSIF, 30 μM in FeSSIF*, FeSSIF*-Th and FeSSIF*-E, and 150 μM in FeSSIF*-FM, FeSSIF*-FMT and FeSSIF*-FMTh. Samples (100 µL) were taken from the acceptor compartment at 15, 30, 45, 60 and 120 min and diluted 1:1 in MeOH:H2O (50:50 v/v) containing IS. Subsequently, the withdrawn volumes were replaced by fresh TPGS-solution.
(§4) The apparent permeability coefficient (Papp) was calculated from the cumulative amount of abiraterone appearing in the acceptor compartment according to Equation (1):(1) Papp=dQ/dt×1/A×Cdonor where dQ/dt is the amount of abiraterone appearing in the acceptor compartment over time, A represents the effective surface area available for transport, and Cdonor is the initial concentration in the donor compartment. Data are represented as mean ± standard deviation (SD).

[5] = Apparent solubility, shake flask method in simulated intestinal media; details: 37 °C, pH 6.5, 37 °C, mean ± SD (n = 3)
Description: as §2

small intestine (ileum) = assay: Rat in situ intestinal perfusion with mesenteric blood sampling
[6] = PAMPA
Description: as §3, §4

[7] = test system: esterase from porcine liver; assay: Enzymatic conversion of abiraterone acetate to abiraterone by porcine esterases; assay type: in vitro ADME; details: 80 IU/mL porcine esterases
Description: (§1) The conversion of abiraterone acetate to abiraterone was studied in the abovementioned media using either 80 IU/mL esterase from porcine liver or 0.83 mg/mL porcine pancreatin. A total of 150 µM abiraterone acetate (DMSO stock solution) was added to 2 mL of the media in a 12-well plate and placed in a prewarmed shaking incubator (37 °C, 300 rpm; Thermostar, BMG Labtech, Offenburg, Germany). Samples were obtained in triplicate at predetermined time points and centrifuged immediately (20.817 g, 5 min). When lipids were present, drug concentrations were determined in both total (lipid + micellar) and micellar layer as described above.

physchem = details: 37 °C, Apparent solubility, micellar
Description: as §2

[8] = 1000 mg a day; cited from earlier work
porcine pancreatin = assay: Enzymatic conversion of abiraterone acetate to abiraterone by porcine pancreatin; assay type: in vitro ADME; details: porcine pancreatin 0.83 mg/mL (same with esterases), 150 μM
Description: as §1

[9] = FeSSIF*-FM, FeSSIF*-FMT and FeSSIF*-FMTh
[10] = abiraterone acetate suspension 0.5 mg/mL, 80 IU/mL esterases

Structure (SMILES): C[C@]12CC[C@H](O)CC1=CC[C@@H]1[C@@H]2CC[C@]2(C)C(c3cccnc3)=CC[C@@H]12 [abiraterone]
Increase of solubility in FeSSIF*-FM compared to FeSSIF* [1]: 5 fold
Apparent solubility, micellar [2]: 12.7 (±4.2) ^1 µM
Log P ([3]; quoted in the discussion of solubility, no reference given): 3.97
Permeability (Papp) in FaSSIF ([4]; FaSSIF, 10 μM donor, compared to Papp values of 14 compounds of ref 13): low permeability
Lowering of permeability in FeSSIF* compared to FaSSIF ([4]; FeSSIF* vs FaSSIF): 2.6 fold
Change of passive permeability with FFA and MG [4, 9]: significant decrease
Effect of addition of TG to FeSSIF* on Papp ([4]; FeSSIF*-Th and FeSSIF*-E vs FeSSIF*): did not have an effect
solubility at 24 h ([5]; FeSSIF*, micellar, pH 6.5, fessif, thermodynamic from solid): 32.7 µM (≈ 11.4 µg/mL)
solubility at 24 h ([5]; FeSSIF*-E, micellar layer of the supernatant, pH 6.5, thermodynamic from solid, micellar layer): 22 µM (≈ 7.69 µg/mL)
solubility at 24 h ([5]; FeSSIF*-E, total sample (micellar + lipid layer), pH 6.5, thermodynamic from solid, total sample (micellar + lipid layer), FeSSIF*-E): 39 µM
solubility at 24 h ([5]; FeSSIF*-FM, micellar, pH 6.5, thermodynamic from solid): 176 µM (≈ 61.5 µg/mL)
solubility at 24 h ([5]; FeSSIF*-FMT, micellar layer of the supernatant, pH 6.5, thermodynamic from solid, micellar layer): 161 µM (≈ 56.3 µg/mL)
solubility at 24 h ([5]; FeSSIF*-FMT, total sample (micellar + lipid layer), pH 6.5, thermodynamic from solid, total sample (micellar + lipid layer), FeSSIF*-FMT): 199 µM
solubility at 24 h ([5]; FeSSIF*-FMTh, micellar layer of the supernatant, pH 6.5, thermodynamic from solid, micellar layer): 158 µM (≈ 55.2 µg/mL)
solubility at 24 h ([5]; FeSSIF*-FMTh, total sample (micellar + lipid layer), pH 6.5, thermodynamic from solid, total sample (micellar + lipid layer), FeSSIF*-FMTh): 221 µM
solubility at 24 h ([5]; FeSSIF*-Th, micellar layer of the supernatant, pH 6.5, thermodynamic from solid, micellar layer): 31 µM (≈ 10.8 µg/mL)
solubility at 24 h ([5]; FeSSIF*-Th, total sample (micellar + lipid layer), pH 6.5, thermodynamic from solid, total sample (micellar + lipid layer), FeSSIF*-Th): 50 µM
Supersaturation in the perfusate (small intestine (ileum); FaSSIF and FeSSIF*, entire course of the experiment): apparent supersaturation
Supersaturation in the perfusate (small intestine (ileum); FeSSIF*-FM, FeSSIF*-FMT, FeSSIF*-FMTh): No supersaturation was observed
Absorptive flux in media with lipid digestion products (small intestine (ileum); FeSSIF*-FM, FeSSIF*-FMT, FeSSIF*-FMTh, abiraterone acetate suspension 0.5 mg/mL, 80 IU/mL esterases): comparable to the flux in FaSSIF
Abiraterone AUC0–60min in the perfusate, FeSSIF* compared to FaSSIF (small intestine (ileum); [10]): much higher
Abiraterone flux towards the mesenteric vein, FeSSIF* compared to FaSSIF (small intestine (ileum); [10]): increased
Absorptive flux in FeSSIF*-E and FeSSIF*-Th compared to FaSSIF (small intestine (ileum); [10]): increased
Absorptive flux in FeSSIF*-Ed compared to FaSSIF and FeSSIF*-FMT (small intestine (ileum); ongoing lipolysis, pancreatin 0.83 mg/mL, abiraterone acetate suspension 0.5 mg/mL): substantially higher

Permeation across the cellulose membrane [6]: too low
Increase of concentration in the total sample in FeSSIF*-FMTh compared to FeSSIF*-FMT [1]: 2 fold
Increase of solubility in FeSSIF*-FM compared to FeSSIF* [1]: 14 fold
Time to almost full conversion to abiraterone ([7]; FaSSIF and FeSSIF*, 150 µM, 37 °C): ≤ 30 min
Conversion in media containing lipid degradation products [7, 9]: very limited
Degradation in media with undigested TG ([7]; FeSSIF*-Th and FeSSIF*-E): slower degradation
solubility at 24 h (physchem; pH 6.5, fessif, thermodynamic from solid): 148 µM
solubility at 24 h (physchem; pH 6.5, thermodynamic from solid): 2110 µM
Degradation in FeSSIF* compared to FeSSIF*-E (porcine pancreatin): degraded faster
Structure (SMILES): CC(=O)O[C@H]1CC[C@@]2(C)C(=CC[C@@H]3[C@@H]2CC[C@]2(C)C(c4cccnc4)=CC[C@@H]32)C1 [abiraterone acetate]
Apparent solubility, micellar [2]: 64.6 (±5.2) ^1 µM
Log P [3]: 5.12
Excretion of the oral dose [8]: largely excreted in the faeces
